Measured values as given in paper PMC11201061, “Mechanistic Study of Antimicrobial Effectiveness of Cyclic Amphipathic Peptide [R4W4] against Methicillin-Resistant Staphylococcus aureus Clinical Isolates” (Antibiotics, 2024).
Values after ≈ are worked out from the molar mass of the structure shown. Where a name gives a salt, the structure may show the parent alone. Read-outs that look alike come from different tables or passages of the source. Where a SMILES comes first, the peptide text is derived from it.

Assays:
[1] = tested on: MRSA Mec IV; assay: microbe, parasite or virus in culture; type: cell-based, Staphylococcus aureus; conditions: for MBC/MIC: MRSA Mec IV, lung isolate
Protocol: (§1) To determine whether the antibacterial activity of [R4W4] is bacteriostatic or bactericidal against clinical isolates of multidrug-resistant bacterial isolates, MIC and MBC were determined using the microbroth dilution method. Bacteriostatic activity was defined as a ratio of the MBC/MIC greater than four and bactericidal activity as MBC/MIC ratio ≤ 4 [33]. We added aliquots of test samples (256 μg/mL concentration of [R4W4] or vancomycin as a control prepared in TSB) to the first well of microplates. MHB media was added to the remaining wells. Two-fold serial dilutions were performed, starting with the highest drug concentration in well 1, and the dilution process continued. A bacterial aliquot of 1/150 dilution was prepared with a 0.5 McFarland standard solution from an overnight culture of the tested bacteria isolate. Bacteria were added to the microplate and placed into wells with the drug dilutions. The microplates were incubated overnight for 24 h at 37 °C. [R4W4] was synthesized and purified, as reported earlier.

[2] = tested on: MRSA Mec 1; assay: microbe, parasite or virus in culture; type: cell-based, Staphylococcus aureus; conditions: for MBC/MIC: MRSA Mec 1, blood isolate
Protocol: as §1

[3] = tested on: MRSA Mec II; assay: microbe, parasite or virus in culture; type: cell-based, Staphylococcus aureus; conditions: for MBC/MIC: MRSA Mec II, blood isolate
Protocol: as §1

[4] = tested on: MRSA Mec III; assay: microbe, parasite or virus in culture; type: cell-based, Staphylococcus aureus; conditions: for MBC/MIC: MRSA Mec III, wound isolate
Protocol: as §1

[5] = tested on: MRSA Clin 5; assay: microbe, parasite or virus in culture; type: cell-based, Staphylococcus aureus; conditions: for MBC/MIC: MRSA Clin 5, lung isolate
Protocol: as §1

[6] = tested on: MRSA Mec V; assay: microbe, parasite or virus in culture; type: cell-based, Staphylococcus aureus; conditions: for MBC/MIC: MRSA Mec V, wound isolate
Protocol: as §1

[7] = tested on: MRSA Clin 6; assay: microbe, parasite or virus in culture; type: cell-based, Staphylococcus aureus; conditions: for MBC/MIC: MRSA Clin 6, lung isolate
Protocol: as §1

[8] = tested on: MRSA LAC; assay: microbe, parasite or virus in culture; type: cell-based, Staphylococcus aureus; conditions: for MBC/MIC: MRSA LAC, wound isolate
Protocol: as §1

[9] = tested on: MRSA (vancomycin hetero-non-susceptible) MU3; assay: microbe, parasite or virus in culture; type: cell-based, Staphylococcus aureus
Protocol: as §1

[10] = tested on: MRSA LAC USA300; assay: Surface charge neutralization by zeta potential; type: cell-based, Staphylococcus aureus; conditions: for zeta potential of MRSA after treatment: agent at 16 μg/mL (4 × MIC of [R4W4]), HEPES pH 7.4, 150 mM NaCl, 25 °C, mean of triplicate, untreated −31 ± 0.88 mV
Protocol: Stock cultures of the MRSA strain from −80 °C were inoculated on MHB agar plates at 37 °C overnight. Two isolated colonies were inoculated in 6 mL MHB broth and allowed to grow overnight with shaking at 225 rpm. A 100 µL bacteria aliquot was added to a 5 mL fresh MHB, and the suspension was incubated to grow for 2 h at 37 °C to achieve a final bacteria concentration of ~3 × 10^8 CFU/mL as (A 600 ~0.1). The bacterial suspension was diluted using fresh MHB to 3 × 10^5 CFU/mL. The bacterial suspension was centrifuged at 11,400× g for 10 min and washed twice using 10 mM HEPES buffer, pH 7.4, containing 150 mM NaCl (normal saline).
An amount of 100 µLs of test samples was added to 900 µL of the bacterial aliquots using a positive buffer without test samples.
Meanwhile, the Malvern Zetasizer Nano was set to read samples at 25 °C. The bacterial suspension was dispensed into disposable zeta cells with gold electrodes and allowed to equilibrate for 15 min at 25 °C. The zeta potential value for each sample was calculated from the measured value of electrophoretic mobility using the Smuluchowski equation.

[11] = tested on: MRSA USA300; assay: microbe, parasite or virus in culture; conditions: for MIC against index isolate (no serial passage): MRSA USA300 index strain
Protocol: MRSA USA300 bacteria from −80 °C freezer stock were cultured on an LB agar plate overnight. One bacteria colony was added to a 6 mL fresh MHB with constant shaking at 200 rpm at 37 °C. The bacteria were transferred daily by inoculating 10 μL of stationary-phase culture into […] of MHB in a 1 mL cap-clipped Eppendorf tube. Then, 20 μL of bacteria aliquot was added to […] of MHB broth, with or without [R4W4], at a final concentration of the MIC overnight in an […] at 37 °C for five transfers. […] […] Experiments were performed in triplicates. Every time we increased the concentration of [R4W4], a sample of the induction generation was inoculated into 20% (vol/vol) glycerol and stored at −70 °C. The final MIC values of [R4W4], vancomycin, and levofloxacin were determined by modified microbroth dilution assay.

[12] = tested on: MRSA LAC; conditions: for Lethal rate (LR), log10 reduction / % Reduction in viable bacteria: MRSA LAC in MHB; for viable bacteria at 26 h: MRSA LAC; for % reduction in viable bacteria over 1 × MIC, 2 × MIC and 4 × MIC: MRSA in MHB, range over the three concentrations
Protocol: The MRSA Los Angeles County (LAC) USA300 strain was cultured from −80 °C freezer stock and inoculated on an agar plate overnight. Two bacteria colonies were inoculated in MH broth overnight at 37 °C with shaking at 200 rpm. An aliquot was added to normal saline to achieve a 0.5 McFarland Standard suspension and then diluted 1:150 with MHB. The bacteria sample was plated on an agar plate at time zero. The test samples were prepared by adding [R4W4] or vancomycin to bacteria to achieve the final sample concentration of (1 × MIC, 2 × MIC, 4 × MIC) using media without antibacterial agents as positive control.
[…] The samples were diluted to minimize excessive CFU counts. The inoculated plates were incubated at 37 °C overnight. The surviving organisms were determined by counting colonies as CFU/plate. The average duplicate counts were multiplied by the dilution factors to arrive at CFU/mL. The microbial reduction was calculated by converting the count to log10 scale. The Log CFU/mL was plotted against time for different antibacterial concentrations.

[13] = Staphylococcus aureus, MRSA, 24 h

Compound: CN[C@H](CC(C)C)C(=O)N[C@H]1C(=O)N[C@@H](CC(N)=O)C(=O)N[C@H]2C(=O)N[C@H]3C(=O)N[C@H](C(=O)N[C@H](C(=O)O)c4cc(O)cc(O)c4-c4cc3ccc4O)[C@H](O)c3ccc(c(Cl)c3)Oc3cc2cc(c3O[C@@H]2O[C@H](CO)[C@@H](O)[C@H](O)[C@H]2O[C@H]2C[C@](C)(N)[C@H](O)[C@H](C)O2)Oc2ccc(cc2Cl)[C@H]1O [Vancomycin, Vancomycin Hydrochloride, reference compound]
- MBC/MIC [1]: 4
- MBC ([1]; Staphylococcus aureus, MRSA): 8 µg/mL
- MIC [1, 13]: 2 µg/mL
- MBC/MIC [2]: 2
- MBC ([2]; Staphylococcus aureus, MRSA): 2 µg/mL
- MIC [2, 13]: 1 µg/mL
- MBC/MIC [3]: 2
- MBC ([3]; Staphylococcus aureus, MRSA): 4 µg/mL
- MIC [3, 13]: 2 µg/mL
- MBC/MIC [4]: 2
- MBC ([4]; Staphylococcus aureus, MRSA): 2 µg/mL
- MIC [4, 13]: 1 µg/mL
- MBC/MIC [5]: 1
- MBC ([5]; Staphylococcus aureus, MRSA): 2 µg/mL
- MIC [5, 13]: 2 µg/mL
- MBC/MIC [6]: 2
- MBC ([6]; Staphylococcus aureus, MRSA): 4 µg/mL
- MIC [6, 13]: 2 µg/mL
- MBC/MIC [7]: 4
- MBC ([7]; Staphylococcus aureus, MRSA): 8 µg/mL
- MIC [7, 13]: 2 µg/mL
- MBC/MIC [8]: 2
- MBC ([8]; Staphylococcus aureus, MRSA): 2 µg/mL
- MIC [8, 13]: 1 µg/mL
- MBC/MIC ([9]; MRSA MU3, lung isolate): 1.5
- MBC ([9]; Staphylococcus aureus, MRSA): 3 µg/mL
- MIC [9, 13]: 2 µg/mL
- zeta potential of MRSA after treatment [10]: −33.03 mV
- MIC against index isolate (no serial passage) ([11]; MIC in duplicate): 0.5 µg/mL
- change in MIC after serial passage ([11]; MRSA USA300 passaged versus index strain): 4 folds
- MIC ([11]; Staphylococcus aureus, MRSA|USA300, read-out: MIC against serial passaged [R4W4]-resistant isolate): 4 µg/mL
- Lethal rate (LR), log10 reduction ([12]; 1 × MIC ([R4W4] 4 µg/mL, vancomycin 1 µg/mL)): 1.02
- % Reduction in viable bacteria ([12]; 1 × MIC, 100 × (1 − 10^−LR)): 90.50%
- % Reduction in viable bacteria ([12]; 1 × MIC, 100 × (1 − 10^−LR), listed as vancomycin): > 90%
- % Reduction in viable bacteria ([12]; 2 × MIC): 98.98%
- Lethal rate (LR), log10 reduction ([12]; 2 × MIC): 1.99
- % Reduction in viable bacteria ([12]; 4 × MIC): 99.58%
- Lethal rate (LR), log10 reduction ([12]; 4 × MIC): 2.37
- viable bacteria at 26 h ([12]; 4 × MIC): no viable bacteria were recovered at 26 h
- % reduction in viable bacteria over 1 × MIC, 2 × MIC and 4 × MIC [12]: 90.50–99.58%

Compound: N=C(N)NCCC[C@@H]1NC(=O)[C@H](CCCNC(=N)N)NC(=O)[C@H](CCCNC(=N)N)NC(=O)[C@H](Cc2c[nH]c3ccccc23)NC(=O)[C@H](Cc2c[nH]c3ccccc23)NC(=O)[C@H](Cc2c[nH]c3ccccc23)NC(=O)[C@H](Cc2c[nH]c3ccccc23)NC(=O)[C@H](CCCNC(=N)N)NC1=O [[R4W4]] (cyclo(RRRRWWWW))
- MBC/MIC [1]: 2
- MBC ([1]; Mec IV, 24 h): 64 µg/mL (≈ 46.7 µM)
- MIC ([1]; Mec IV, 24 h): 32 µg/mL (≈ 23.4 µM)
- MBC/MIC [2]: 2
- MBC ([2]; Mec 1, 24 h): 4 µg/mL (≈ 2.92 µM)
- MIC ([2]; Mec 1, 24 h): 2 µg/mL (≈ 1.46 µM)
- MBC/MIC [3]: 2
- MBC ([3]; Mec II, 24 h): 8 µg/mL (≈ 5.84 µM)
- MIC ([3]; Mec II, 24 h): 4 µg/mL (≈ 2.92 µM)
- MBC/MIC [4]: 2
- MBC ([4]; Mec III, 24 h): 8 µg/mL (≈ 5.84 µM)
- MIC ([4]; Mec III, 24 h): 4 µg/mL (≈ 2.92 µM)
- MBC ([5]; Clin 5, 24 h): 32 µg/mL (≈ 23.4 µM)
- MIC ([5]; Clin 5, 24 h): 16 µg/mL (≈ 11.7 µM)
- MBC/MIC [5]: 2
- MBC/MIC [6]: 4
- MBC ([6]; Mec V, 24 h): 64 µg/mL (≈ 46.7 µM)
- MIC ([6]; Mec V, 24 h): 16 µg/mL (≈ 11.7 µM)
- MBC ([7]; Clin 6, 24 h): 32 µg/mL (≈ 23.4 µM)
- MIC ([7]; Clin 6, 24 h): 32 µg/mL (≈ 23.4 µM)
- MBC/MIC [7]: 1
- MBC ([8]; LAC, 24 h): 16 µg/mL (≈ 11.7 µM)
- MBC/MIC [8]: 4
- MBC/MIC ([9]; MRSA MU3, lung isolate): 2
- MBC ([9]; MRSA MU3, lung isolate, averages of triplicates of three different experiments): 32 µg/mL (≈ 23.4 µM)
- MIC ([9]; vancomycin hetero-non-susceptible) MU3, 24 h): 16 µg/mL (≈ 11.7 µM)
- concentration required to achieve neutralization of negative surface charge ([10]; 2 × MIC): 8 µg/mL
- zeta potential of MRSA after treatment [10]: −8.37 mV
- final [R4W4] concentration at which growth was achieved at the end of serial passage ([11]; MRSA USA300, 35 passages, stepwise increasing concentration): 32 µg/mL
- MIC against serial passaged [R4W4]-resistant isolate ([11]; MRSA USA300 after serial passage in [R4W4], MIC in duplicate): 16 µg/mL (≈ 11.7 µM)
- MIC against index isolate (no serial passage) ([11]; MIC in duplicate): 4 µg/mL (≈ 2.92 µM)
- % Reduction in viable bacteria ([12]; 1 × MIC, 100 × (1 − 10^−LR)): 99.67%
- % Reduction in viable bacteria ([12]; 2 × MIC): 99.78%
- Lethal rate (LR), log10 reduction ([12]; 2 × MIC): 2.65
- % Reduction in viable bacteria ([12]; 4 × MIC): 99.87%
- Lethal rate (LR), log10 reduction ([12]; 4 × MIC): 2.89
- viable bacteria at 26 h ([12]; 4 × MIC): bacteria remaining viable up to 26 h
- % reduction in viable bacteria over 1 × MIC, 2 × MIC and 4 × MIC [12]: 99.67–99.87%
